According to the NIST ThermoML archive (doi:10.1021/acs.jced.8b00812):
± gives the expanded uncertainty stated by the source.

Details: Liquid; for viscosity: Capillary tube (Ostwald / Ubbelohde) method; for mass density: Vibrating tube method

CCCCCCCCCO [nonan-1-ol]
Details | mass density [kg/m3] | viscosity [mPa·s]
298.15 K, 1990 kPa | 825.5 ± 0.9 | 9.285 ± 0.11
298.15 K, 3990 kPa | 826.7 ± 0.9 | 9.511 ± 0.12
298.15 K, 6000 kPa | 828 ± 0.9 | 9.746 ± 0.12
298.15 K, 8010 kPa | 829.2 ± 0.9 | 9.958 ± 0.12
298.15 K, 10010 kPa | 830.5 ± 0.9 | 10.17 ± 0.12
298.15 K, 13000 kPa | 832.2 ± 0.9 | 10.51 ± 0.13
298.15 K, 16000 kPa | 833.9 ± 0.9 | 10.85 ± 0.13
298.15 K, 19010 kPa | 835.5 ± 0.9 | 11.2 ± 0.14
298.15 K, 21990 kPa | 837.1 ± 1 | 11.56 ± 0.14
298.15 K, 25000 kPa | 838.7 ± 1 | 11.93 ± 0.14
298.15 K, 28020 kPa | 840.2 ± 1 | 12.28 ± 0.15
298.15 K, 30020 kPa | 841.1 ± 1 | 12.51 ± 0.15
303.14 K, 27980 kPa | 836.9 ± 1 | 11.13 ± 0.14
303.15 K, 2010 kPa | 822 ± 0.9 | 8.424 ± 0.1
303.15 K, 4010 kPa | 823.2 ± 0.9 | 8.633 ± 0.11
303.15 K, 6020 kPa | 824.5 ± 0.9 | 8.843 ± 0.11
303.15 K, 8030 kPa | 825.7 ± 0.9 | 9.053 ± 0.11
303.15 K, 9990 kPa | 826.9 ± 0.9 | 9.257 ± 0.11
303.15 K, 12980 kPa | 828.7 ± 0.9 | 9.568 ± 0.12
303.15 K, 15970 kPa | 830.4 ± 0.9 | 9.88 ± 0.12
303.15 K, 19020 kPa | 832.1 ± 0.9 | 10.2 ± 0.12
303.15 K, 22010 kPa | 833.8 ± 1 | 10.51 ± 0.13
303.15 K, 25000 kPa | 835.4 ± 1 | 10.82 ± 0.13
303.15 K, 30000 kPa | 837.9 ± 1 | 11.34 ± 0.14
313.15 K, 2000 kPa | 814.9 ± 0.9 | 6.381 ± 0.079
313.15 K, 3970 kPa | 816.3 ± 0.9 | 6.536 ± 0.081
313.15 K, 6020 kPa | 817.6 ± 0.9 | 6.699 ± 0.082
313.15 K, 7990 kPa | 818.9 ± 0.9 | 6.854 ± 0.084
313.15 K, 10020 kPa | 820.2 ± 0.9 | 7.015 ± 0.086
313.15 K, 13000 kPa | 822 ± 0.9 | 7.25 ± 0.089
313.15 K, 16000 kPa | 823.8 ± 0.9 | 7.487 ± 0.092
313.15 K, 18980 kPa | 825.6 ± 0.9 | 7.723 ± 0.095
313.15 K, 22000 kPa | 827.3 ± 1 | 7.961 ± 0.097
313.15 K, 25000 kPa | 829 ± 1 | 8.198 ± 0.1
313.15 K, 28010 kPa | 830.6 ± 1 | 8.436 ± 0.1
313.15 K, 29990 kPa | 831.7 ± 1 | 8.592 ± 0.11
323.15 K, 2010 kPa | 808.3 ± 0.9 | 4.745 ± 0.059
323.15 K, 4020 kPa | 809.7 ± 0.9 | 4.859 ± 0.06
323.15 K, 6020 kPa | 811 ± 0.9 | 4.976 ± 0.062
323.15 K, 8010 kPa | 812.3 ± 0.9 | 5.09 ± 0.063
323.15 K, 10010 kPa | 813.7 ± 0.9 | 5.202 ± 0.065
323.15 K, 13010 kPa | 815.7 ± 0.9 | 5.376 ± 0.067
323.15 K, 16010 kPa | 817.5 ± 0.9 | 5.539 ± 0.069
323.15 K, 19000 kPa | 819.3 ± 0.9 | 5.716 ± 0.071
323.15 K, 22010 kPa | 821.1 ± 0.9 | 5.892 ± 0.073
323.15 K, 25000 kPa | 822.9 ± 1 | 6.07 ± 0.075
323.15 K, 28000 kPa | 824.6 ± 1 | 6.247 ± 0.077
323.15 K, 30000 kPa | 825.7 ± 1 | 6.373 ± 0.079
